ChEMBL document CHEMBL1759900, “Inhibition of nitric oxide production in lipopolysaccharide-stimulated RAW264.7 macrophage cells by lignans isolated from Euonymus alatus leaves and twigs” (Bioorg Med Chem Lett, 2011)
pIC50: −log10 of the molar value.

Test system: RAW264.7
Experiment: Inhibition of LPS-induced nitric oxide production in mouse RAW264.7 cells preincubated with compound for 1 hr before exposure to LPS measured after 24 hrs by Griess reaction method
Format: functional, cell-based

pIC50	Structure (SMILES)
4.24	COc1cc([C@H](O)[C@H](CO)Oc2c(OC)cc(/C=C/CO)cc2OC)ccc1O
4.93	COc1cc([C@H]2Oc3c(OC)cc(/C=C/CO)cc3[C@@H]2CO)cc(OC)c1O
4.20	COc1cc([C@@H](O)[C@H](CO)Oc2ccc(/C=C/CO)cc2OC)ccc1O
4.67	COc1cc(C(O)C(CO)Oc2c(OC)cc(C3Oc4c(OC)cc(/C=C/CO)cc4C3CO)cc2OC)ccc1O (stereo not given)
4.89	COc1cc([C@@H]2Oc3c(OC)cc(/C=C/CO)cc3[C@H]2CO)cc(OC)c1O
5.03	COc1cc([C@H]2Oc3c(OC)cc(/C=C/CO)cc3[C@@H]2CO)ccc1O
4.18	COc1cc([C@H](O)[C@@H](CO)Oc2ccc(/C=C/CO)cc2OC)ccc1O
5.07	COc1cc([C@@H]2Oc3c(OC)cc(/C=C/CO)cc3[C@H]2CO)ccc1O [DEHYDROCONIFERYL ALCOHOL]
5.01	COc1cc([C@H]2Oc3c(OC)cc(CCCO)cc3[C@@H]2CO)ccc1O [DIHYDRODEHYDRODICONIFERY ALCOHOL]

The remaining lines, values behind:

Structure (SMILES)	pIC50
COc1cc([C@@H](O)[C@@H](CO)Oc2ccc(CCCO)cc2OC)ccc1O	4.20
COc1cc(CC(CO)OC(CO)C(OC)c2cc(OC)c(O)c(OC)c2)ccc1O (stereo not given)	4.38
COc1cc([C@@H]2c3c(cc(OC)c(O)c3OC)C[C@@H](CO)[C@@H]2CO)cc(OC)c1O	4.26
COc1cc([C@H](O)[C@@H](CO)Oc2c(OC)cc(/C=C/CO)cc2OC)cc(OC)c1O	4.24
COc1cc([C@H](O)[C@H](CO)Oc2ccc(CCCO)cc2OC)ccc1O	4.16
COc1cc([C@H]2OC[C@H]3[C@@H]2CO[C@@H]3c2cc(OC)c(OC)c(OC)c2)cc(OC)c1O	4.80
COc1cc(C(OC)C(CO)OC(CO)Cc2cc(OC)c(O)c(OC)c2)ccc1O (single isomer, unassigned; (-))	4.35
COc1cc(C(O)C(CO)Oc2c(OC)cc(C3OCC4C(c5cc(OC)c(OC(CO)C(O)c6ccc(O)c(OC)c6)c(OC)c5)OCC34)cc2OC)ccc1O (stereo not given) [HEDYOTISOL B]	< 4.00
COc1cc([C@H]2OC[C@H]3[C@@H]2CO[C@@H]3c2cc(OC)c(O[C@H](CO)[C@@H](O)c3ccc(O)c(OC)c3)c(OC)c2)ccc1O [HEDYOTOL C]	4.67
COC(=O)[C@@H](N)CCCNC(=N)N[N+](=O)[O-] [L-NAME]	4.31
COc1cc([C@H]2OC[C@H]3[C@@H]2CO[C@@H]3c2cc(OC)c(O)c(OC)c2)cc(OC)c1O [SYRINGARESINOL]	4.83
